Experiment: Monolayer dispersion threshold of metal salt on silica gel by XRD diffraction peak intensity extrapolation
Assay type: physicochemical
Conditions: salt impregnated on silica gel at 90 °C, dried 120 °C 10 h
Method: Through equal volume impregnation method, silica gel pellets is impregnated with a series of different concentrations of salt solution containing M^n+ ion. The impregnated solid materials are dried in an oven to obtain a silica gel intermediate M/SiO2 with a different amounts of M salt on the surface. Based on monolayer dispersion principle of a metal salt on the surface of carrier, the monolayer dispersion threshold of various kinds of M^n+ ion salts on silica gel surface is determined by X - ray diffraction method. The value is the monolayer loading of various salts on the surface of silica gel carrier.
Further, in the step (1), it is necessary to determine monolayer dispersion threshold of M^n+ ion salt on the surface of silica gel, which may be measured by loading a series of different amounts of the M^n+ ion salt onto the surface of silica gel by the solution impregnation method followed by drying to obtain the sample to be tested.
The silica gel mass is 5-10 g, and the loading amount of M^n+ ion salt on the silica gel is 0.02g, 0.05g, 0.1g, 0.5g, 1.0g, 2.0g, 3.0g, 4.0g, 5.0g, 6.0 g per g silica gel; the ratio by volume of the M^n+ ion solution to the silica gel is 0.5-2.
The obtained samples series is subjected to X-ray diffraction (XRD) and the strongest diffraction peak intensity (y-axis) is linearly correlated with the corresponding M^n+ ion salt loading (x-axis) in which the intercept on the x-axis is the monolayer dispersion threshold.
Further, in the step (1), the impregnation process is carried out in a water bath at a temperature of 90 °C, and the mixture is continuously stirred until the liquid is completely evaporated and the solute M^n+ ion salt is fully supported on the silica gel surface.
Further, in the step (1), the silica gel intermediate M/ SiO2 is dried in an oven for 10 h at a temperature of 120 °C.
Then, 1 g of silica gel pellets were added to each beaker and the beaker was placed in a water bath at a temperature of 90 °C. In the process of evaporation of water, the mixture was being stirred with a glass rod until the water evaporated and the pellets were basically dry. The beaker was dried in an oven at 120 °C for 10 hours.
Then, 1 g of silica gel pellets were added to each beaker and the beaker was placed in a water bath at a temperature of 90 °C.

SMILES	monolayer dispersion threshold on silica gel [g/g]
O.O.O.O.O.O.O=[N+]([O-])[O-].O=[N+]([O-])[O-].[Co+2] [Co(NO3)2, cobalt nitrate]	0.63
O=S(=O)([O-])[O-].[Cu+2] [CuSO4, copper sulfate]	0.79
[Cl][Fe]([Cl])[Cl] [FeCl3, ferric chloride]	0.43
CC(=O)[O-].CC(=O)[O-].O.O.[Zn+2] [Zn(AC)2, zinc acetate]	0.18
O.O=[N+]([O-])[O-].O=[N+]([O-])[O-].[O]=[Zr+2] [ZrO(NO3)2]	1.02
